Results taken from BindingDB's records for doi:10.1016/j.bmc.2012.12.010 (Duquesne University, 2013).

Experiment: Inhibition of MDR1 (unknown origin) transfected in human SKOV3 cells assessed as growth inhibition after 48 hrs by SRB assay

**Q.** For `CCN(c1ccc(OC)cc1)c1nc(N)nc2[nH]c3ccccc3c12`, which IC50 is on record?
**A.** 72 nM

**Q.** With `CCOc1ccc(N(C)c2nc(N)nc3[nH]c4ccccc4c23)cc1` as the molecule, how does the IC50 read?
**A.** 29 nM
